Experimental data reported in article PMC7083565, “In vitro metabolism, reaction phenotyping, enzyme kinetics, CYP inhibition and induction potential of ataluren” (Pharmacology Research & Perspectives, 2020).
Read-outs that look alike come from different tables or passages of the source.

Experiments:
Format in all cases: in vitro ADME
[1] = Ataluren glucuronidation kinetics, human kidney microsomes; conditions: for CLint,u,UGT (scaled) / K m / K m, u / V max: HKM; for CLint,u,UGT (scaled): 12.8 mg protein/g tissue; for K m / K m, u / V max: mean ± SE; for K m / K m, u / V max / fraction unbound at 15 min: n = 3; for fraction unbound at 15 min / microsomal CLint: human, pH 7.5, HKM; for fraction unbound at 15 min: pooled human kidney microsomes incubation mixture, mean ± SD, read-out: fu,inc; for microsomal CLint: pooled human kidney microsomes, read-out: CLint,u,UGT
Procedure: (§1) Ataluren at 0.5, 2.5, 12.5, 25, 50, 100, 200, and 400 µmol/L, was incubated (n = 3) at 37°C with recombinant human UGT1A9 and with pooled microsomes from human liver, kidney, and intestine (0.025 mg protein/mL, preactivated with alamethicin at 20 µg/mL) in Tris‐HCl buffer (0.1 mol/L, pH 7.5), in the presence of 1 mmol/L EDTA, 5 mmol/L MgCl2, with or without 0.5%, 1%, or 2% BSA. The incubation (100 µL final volume with 0.5% DMSO) was started by adding an equal volume of UDPGA (5 mmol/L) in Tris‐HCl buffer (0.1 mol/L, pH 7.5). After 30 minutes incubation, the incubation mixtures were combined with 0.3 mL of an internal standard solution in acetonitrile with 1% formic acid, followed by membrane plate filtration. The filtrates were used for LC‐MS/MS analysis to quantify the formation of ataluren‐O‐1β‐acyl glucuronide. Detailed LC‐MS/MS conditions are summarized in LC‐MS/MS Analysis section. Ataluren acyl glucuronide formation rate after 30 minutes incubation was calculated using the amount of metabolite formed (pmol) divided by the protein amount in the incubation sample (0.0025 mg) and the incubation time (30 minutes). Ataluren glucuronidation kinetic parameters were determined with and without adjusting BSA binding by nonlinear regression (GraphPad Prism, 5version 5.04, GraphPad Software, Inc.) using Michaelis‐Menten equation which was the best fit compared with other models. The intrinsic clearance was calculated as CLint = Vmax/Km. In order to compare unbound intrinsic clearance by glucuronidation (CLint,u,UGT) in different tissues, CLint,u,UGT was expressed per gram of tissue by correcting the values for the microsomal protein yield, resulting in scaled CLint,u,UGT. Microsomal protein yields of 40.0, 12.8, and 20.6 mg protein/g tissue were used for hepatic, renal, and intestinal data, respectively. ^26
(§2) The high‐throughput membrane ultrafiltration method ^27 was used to determine the fraction unbound in the incubation (n = 3). Incubation mixtures and procedures were essentially the same as the above except that UDPGA (5 mmol/L) was replaced with Tris‐HCl buffer (0.1 mol/L, pH 7.5). After 15 minutes incubation, aliquot was transferred to a Millipore Multiscreen Ultracel‐10 filter plate (10 kDa molecular mass cut off; EMD Millipore). The plate was centrifuged at 37°C and 3710 g. After 30 minutes centrifugation, aliquots of ultrafiltrates and incubation mixtures prior to ultrafiltration were quenched with an internal standard solution in acetonitrile, followed by membrane plate filtration. The filtrates were used for LC‐MS/MS analysis to quantify the concentration of ataluren. The same LC‐MS/MS conditions described above are summarized in LC‐MS/MS Analysis section. The free fraction = Cu/Cm, where Cu is the concentration of ataluren in the ultrafiltrate and Cm is the concentration of ataluren in the incubation system before centrifugation. Unbound Km (Km, u) was recalculated by applying Michaelis‐Menten equation using free ataluren concentrations after correcting BSA binding at each ataluren and BSA concentration level.
(§3) Quantification of ataluren‐O‐1β‐acyl glucuronide formation was conducted on an Accela pump and a PAL autosampler equipped with a TSQ Quantum Ultra mass spectrometer (Thermo Fisher Scientific). A Waters Acquity BEH column (C18, 1.7 µm, 50 × 2.1 mm; Waters Cooperation) was used and maintained at 50°C. The mobile phases were 0.1% formic acid in water (A) and acetonitrile (B). The flow rate was 0.6 mL/min and gradient program was as follows: linear gradient from 0% B to 95% B in 0.5 minutes and hold isocratic at 95% B for 1 minute; linear gradient from 95% B to 0% B in 0.1 minutes and hold isocratic at 0% B for 0.4 minutes. TSQ Quantum Ultra mass spectrometer was equipped with a heated electrospray ionization source operated in negative‐ion mode with a vaporizer temperature of 350°C, capillary temperature of 380°C, and spray voltage of 3 kV. […]

UGT (glucuronidation) = assay: as above; conditions: human, pooled human kidney microsomes, pH 7.5, HKM, 0% BSA; read-out: CLint,u,UGT
Procedure: as §1, §2, §3

UGT1A9 = target: T1, UGT1A9 (Homo sapiens, UniProt O60656); assay: Ataluren glucuronidation kinetics, recombinant human UGT1A9; conditions: for K m / K m, u / V max: mean ± SE; for K m / K m, u / V max / fraction unbound at 15 min: n = 3; for microsomal CLint / fraction unbound at 15 min: human; for microsomal CLint: read-out: CLint,u,UGT; for fraction unbound at 15 min: recombinant human UGT1A9 incubation mixture, mean ± SD, read-out: fu,inc
T1 construct: purchased BD Biosciences; host or cells: baculovirus-infected insect cells
T1 sequence (O60656 26-530): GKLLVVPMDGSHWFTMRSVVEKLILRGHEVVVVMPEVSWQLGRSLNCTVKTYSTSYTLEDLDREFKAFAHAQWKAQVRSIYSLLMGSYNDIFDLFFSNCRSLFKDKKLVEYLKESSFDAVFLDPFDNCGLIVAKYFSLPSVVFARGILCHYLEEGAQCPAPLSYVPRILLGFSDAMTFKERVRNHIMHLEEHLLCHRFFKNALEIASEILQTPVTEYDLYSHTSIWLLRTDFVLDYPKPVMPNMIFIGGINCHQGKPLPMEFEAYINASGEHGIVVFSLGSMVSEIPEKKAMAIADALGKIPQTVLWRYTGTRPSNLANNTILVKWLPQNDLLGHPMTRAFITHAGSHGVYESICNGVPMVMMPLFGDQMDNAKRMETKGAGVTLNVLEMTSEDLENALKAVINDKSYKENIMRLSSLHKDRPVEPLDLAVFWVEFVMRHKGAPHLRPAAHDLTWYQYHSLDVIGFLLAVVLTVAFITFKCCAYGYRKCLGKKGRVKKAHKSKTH
Procedure: as §1, §2, §3

O=C(O)c1cccc(-c2noc(-c3ccccc3F)n2)c1 [ataluren, Ataluren]
human kidney microsomes more active than human liver microsomes in ataluren glucuronidation, in terms of CLint,u/mg protein ([1]; HKM vs HLM): about 3.7 fold | CLint,u,UGT (scaled) ([1]; 0% BSA): 4.15 mL/min/g of tissue | K m ([1]; 0% BSA): 10.8 ± 1.40 µM | K m, u ([1]; 0% BSA): 10.8 ± 1.40 µM | V max ([1]; 0% BSA): 3948 ± 90.3 pmol/min/mg | CLint,u,UGT (scaled) ([1]; 0.5% BSA): 12.18 mL/min/g of tissue | K m ([1]; 0.5% BSA): 33.0 ± 7.36 µM | K m, u ([1]; 0.5% BSA): 3.09 ± 0.671 µM | V max ([1]; 0.5% BSA): 2941 ± 168 pmol/min/mg | CLint,u,UGT (scaled) ([1]; 1% BSA): 20.0 mL/min/g of tissue | K m ([1]; 1% BSA): 36.5 ± 6.31 µM | K m, u ([1]; 1% BSA): 1.64 ± 0.334 µM | V max ([1]; 1% BSA): 2563 ± 137 pmol/min/mg | CLint,u,UGT (scaled) ([1]; 2% BSA): 16.5 mL/min/g of tissue | K m ([1]; 2% BSA): 74.1 ± 8.38 µM | K m, u ([1]; 2% BSA): 1.82 ± 0.291 µM | V max ([1]; 2% BSA): 2342 ± 119 pmol/min/mg | maximal effect of BSA on CLint,u (increase) ([1]; human kidney microsomes, with vs without BSA): ~4.8 fold | fraction unbound at 15 min ([1]; 0% BSA): 1 ± 0.121 | fraction unbound at 15 min ([1]; 0.5% BSA): 0.095 ± 0.003 | fraction unbound at 15 min ([1]; 1% BSA): 0.05 ± 0.002 | fraction unbound at 15 min ([1]; 2% BSA): 0.03 ± 0.003 | microsomal CLint ([1]; 0.5% BSA): 952 µL/min/mg | microsomal CLint ([1]; 1% BSA): 1560 µL/min/mg | microsomal CLint ([1]; 2% BSA): 1290 µL/min/mg | microsomal CLint (UGT (glucuronidation)): 324 µL/min/mg | K m (UGT1A9; UGT1A9, 0% BSA): 4.76 ± 0.934 µM | K m, u (UGT1A9; UGT1A9, 0% BSA): 4.76 ± 0.934 µM | V max (UGT1A9; UGT1A9, 0% BSA): 1058 ± 31.8 pmol/min/mg | K m (UGT1A9; UGT1A9, 0.5% BSA): 26.4 ± 2.80 µM | K m, u (UGT1A9; UGT1A9, 0.5% BSA): 2.71 ± 0.309 µM | V max (UGT1A9; UGT1A9, 0.5% BSA): 752 ± 20.3 pmol/min/mg | K m (UGT1A9; UGT1A9, 1% BSA): 45.6 ± 3.83 µM | K m, u (UGT1A9; UGT1A9, 1% BSA): 2.52 ± 0.243 µM | V max (UGT1A9; UGT1A9, 1% BSA): 842 ± 23.0 pmol/min/mg | K m (UGT1A9; UGT1A9, 2% BSA): 83.4 ± 15.3 µM | K m, u (UGT1A9; UGT1A9, 2% BSA): 2.46 ± 0.498 µM | V max (UGT1A9; UGT1A9, 2% BSA): 847 ± 56.2 pmol/min/mg | microsomal CLint (UGT1A9; recombinant human UGT1A9, pH 7.5, UGT1A9, 0% BSA): 222 µL/min/mg | microsomal CLint (UGT1A9; recombinant human UGT1A9, pH 7.5, UGT1A9, 0.5% BSA): 277 µL/min/mg | microsomal CLint (UGT1A9; recombinant human UGT1A9, pH 7.5, UGT1A9, 1% BSA): 334 µL/min/mg | microsomal CLint (UGT1A9; recombinant human UGT1A9, pH 7.5, UGT1A9, 2% BSA): 344 µL/min/mg | fraction unbound at 15 min (UGT1A9; pH 7.5, UGT1A9, 0% BSA): 1 ± 0.5 | fraction unbound at 15 min (UGT1A9; pH 7.5, UGT1A9, 0.5% BSA): 0.116 ± 0.019 | fraction unbound at 15 min (UGT1A9; pH 7.5, UGT1A9, 1% BSA): 0.064 ± 0.007 | fraction unbound at 15 min (UGT1A9; pH 7.5, UGT1A9, 2% BSA): 0.035 ± 0.003 | maximal effect of BSA on CLint,u (increase) (UGT1A9; recombinant UGT1A9, with vs without BSA): approximately 1.6 fold
